Data taken from ChEMBL document CHEMBL4616583 (J Med Chem, 2019).
≈ marks a conversion by molar mass, not a printed value. Calls of active or inactive are those of the source. The rule behind the calls is not given here.

Legend:
in vivo [1] = details: rat, urine, po, 10 mg/kg
in vitro [2] = details: human, microsomes
in vivo [3] = details: mouse, plasma
in vivo [4] = details: mouse, plasma; remark: listed apart in the source
in vitro [5] = details: human, microsomes; remark: listed apart in the source
in vivo [6] = details: dog, po, 2 mg/kg
physchem [7] = details: fed state simulated intestinal fluid (FeSSIF)
in vivo [8] = details: rat, iv, 5 mg/kg
Mus musculus [9] = species: Mus musculus; assay: animal or person; details: NZB/WF1, po, 504 h, read-out: INH
in vitro [10] = details: rat, plasma
in vivo [11] = details: rat, iv, 5 mg/kg; remark: listed apart in the source
[12] = molecular target: Tyrosine-protein kinase BTK (Mus musculus) (UniProt P35991); details: DBA1/J, 2.5 mg/kg
Chain of Tyrosine-protein kinase BTK (Mus musculus) (P35991 whole entry): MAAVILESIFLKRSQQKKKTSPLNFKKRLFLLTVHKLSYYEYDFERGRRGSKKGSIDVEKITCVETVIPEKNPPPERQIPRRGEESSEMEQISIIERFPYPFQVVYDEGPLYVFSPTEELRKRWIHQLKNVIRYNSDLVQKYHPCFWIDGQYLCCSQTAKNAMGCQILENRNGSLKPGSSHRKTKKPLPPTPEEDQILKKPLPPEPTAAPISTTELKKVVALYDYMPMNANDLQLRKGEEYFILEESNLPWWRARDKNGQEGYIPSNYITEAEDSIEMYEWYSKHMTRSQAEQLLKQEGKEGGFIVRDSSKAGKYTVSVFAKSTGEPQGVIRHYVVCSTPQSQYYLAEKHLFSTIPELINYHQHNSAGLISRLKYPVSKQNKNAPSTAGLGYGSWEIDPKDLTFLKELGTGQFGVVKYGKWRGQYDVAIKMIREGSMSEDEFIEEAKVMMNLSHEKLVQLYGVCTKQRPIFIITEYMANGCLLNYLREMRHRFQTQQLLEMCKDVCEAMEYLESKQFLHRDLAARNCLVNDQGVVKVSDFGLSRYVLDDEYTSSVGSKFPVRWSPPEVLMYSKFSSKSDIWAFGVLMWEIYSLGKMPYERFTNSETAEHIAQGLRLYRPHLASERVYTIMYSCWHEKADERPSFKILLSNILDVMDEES

in vivo [13] = details: mouse, iv, 2 mg/kg
physchem [14] = details: buffer, pH 7
in vivo [15] = details: dog, po, 2 mg/kg; remark: listed apart in the source
in vivo [16] = details: rhesus monkey, po, 2 mg/kg
in vivo [17] = details: mouse, iv, 2 mg/kg; remark: listed apart in the source
Cynomolgus monkey [18] = assay: animal or person; details: Macaca fascicularis, po, 4 h, read-out: INH
[19] = molecular target: Tyrosine-protein kinase BTK (Mus musculus) (UniProt P35991); details: DBA1/J, 0.1 mg/kg
in vitro [20] = details: human, Caco-2
Mus musculus [21] = species: Mus musculus; details: DBA1/J, 0.1 to 2.5 mg/kg
in vivo [22] = details: dog, iv, 1 mg/kg
in vitro [23] = details: human, Caco-2; remark: listed apart in the source
in vivo [24] = details: mouse, po, 4 mg/kg
in vivo [25] = details: rhesus monkey, iv, 1 mg/kg
Mus musculus [26] = species: Mus musculus; assay: animal or person; details: NZB/WF1, po, 504 h, read-out: INH; remark: listed apart in the source
in vitro [27] = details: PAMPA, pH 5.5
in vivo [28] = details: rat, po, 5 mg/kg
[29] = molecular target: Tyrosine-protein kinase BTK (Mus musculus) (UniProt P35991); details: 0.5 mg/kg
in vivo [30] = details: mouse, iv, 2 mg/kg; remark: listed apart in the source
in vivo [31] = details: rat, po, 5 mg/kg; remark: listed apart in the source
in vivo [32] = details: rhesus monkey, po, 2 mg/kg; remark: listed apart in the source
Cynomolgus monkey [33] = assay: animal or person; details: Macaca fascicularis, po, 72 h, read-out: INH
Mus musculus [34] = species: Mus musculus; assay: animal or person; details: NZB/WF1, po, 504 h, read-out: INH; remark: listed apart in the source
in vivo [35] = details: rat, iv, 5 mg/kg; remark: listed apart in the source
physchem [36] = details: buffer, pH 1
in vitro [37] = details: PAMPA, pH 7.4
in vivo [38] = details: rhesus monkey, po, 2 mg/kg; remark: listed apart in the source
[39] = molecular target: Tyrosine-protein kinase BTK (Mus musculus) (UniProt P35991); details: 0.5 mg/kg; remark: listed apart in the source
Mus musculus [40] = species: Mus musculus; assay: animal or person; details: DBA1/J, po, 912 h, read-out: INH
Homo sapiens [41] = species: Homo sapiens; details: 10 uM
in vivo [42] = details: rat, iv, 5 mg/kg; remark: listed apart in the source
in vivo [43] = details: dog, iv, 1 mg/kg; remark: listed apart in the source
[44] = molecular target: Tyrosine-protein kinase BTK (Mus musculus) (UniProt P35991); details: NZB/WF1, 0.5 mg/kg
in vivo [45] = details: mouse, po, 4 mg/kg; remark: listed apart in the source
[46] = molecular target: Tyrosine-protein kinase BTK (Mus musculus) (UniProt P35991); details: NZB/WF1, 0.2 mg/kg
Homo sapiens [47] = species: Homo sapiens; details: 10 uM; remark: listed apart in the source
in vivo [48] = details: dog, iv, 1 mg/kg; remark: listed apart in the source
in vivo [49] = details: rat, po, 5 mg/kg; remark: listed apart in the source
in vivo [50] = details: rhesus monkey, iv, 1 mg/kg; remark: listed apart in the source
in vivo [51] = details: rhesus monkey, iv, 1 mg/kg; remark: listed apart in the source
in vivo [52] = details: mouse, po, 4 mg/kg; remark: listed apart in the source
in vivo [53] = details: mouse, iv, 2 mg/kg; remark: listed apart in the source
in vitro [54] = details: mouse, plasma
in vivo [55] = details: dog, po, 2 mg/kg; remark: listed apart in the source
in vivo [56] = details: rat, po, 5 mg/kg; remark: listed apart in the source
in vitro [57] = details: dog, plasma
in vivo [58] = details: rhesus monkey, po, 2 mg/kg; remark: listed apart in the source
[59] = molecular target: Tyrosine-protein kinase BTK (Mus musculus) (UniProt P35991); details: 0.5 to 2.5 mg/kg
in vivo [60] = details: dog, iv, 1 mg/kg; remark: listed apart in the source
in vitro [61] = details: rhesus monkey, plasma
in vivo [62] = details: dog, po, 2 mg/kg; remark: listed apart in the source
[63] = molecular target: Tyrosine-protein kinase BTK (Mus musculus) (UniProt P35991); details: DBA1/J, 0.5 mg/kg
B cell = assay: cells; details: Homo sapiens
in vivo [64] = details: rhesus monkey, iv, 1 mg/kg; remark: listed apart in the source
in vivo [65] = details: mouse, po, 4 mg/kg; remark: listed apart in the source
physchem [66] = details: fasted state simulated intestinal fluid (FaSSIF)
in vitro [67] = details: human, plasma

Question: With CC#C[14C](=O)N[C@H]1CCCN(c2c(F)cc(C(N)=O)c3[nH]c(C)c(C)c23)C1 as the compound, how does the dose excreted at 72 h (in vivo [1]) read?
Answer: 0.7%

Question: Which remaining at 10 min (in vitro [2]) does the source give for C=CS(=O)(=O)N[C@@H]1CCCN(c2ccc(C(N)=O)c3[nH]c(C)c(C)c23)C1 here?
Answer: 84%

Question: What does the source list for CC#CC(=O)N[C@H]1CCCN(c2ccc(C(N)=O)c3[nH]c(C)c(C)c23)C1?
Answer: Cmax (in vivo [3]): 0.49 µM; AUC (in vivo [4]): 1.1 µM·h

Question: With C=CS(=O)(=O)N[C@H]1CCCN(c2ccc(C(N)=O)c3[nH]c(C)c(C)c23)C1 as the compound, how does the half-life (in vitro [5]) read?
Answer: 0.833 h

Question: What about the remaining at 10 min (in vitro [2]) of the same compound?
Answer: 90%

Question: And the Cmax (in vivo [3])?
Answer: 0.127 µM

Question: What does the source list for CC#CC(=O)N[C@H]1CCCN(c2c(F)cc(C(N)=O)c3[nH]c(C)c(C)c23)C1 [BRANEBRUTINIB]?
Answer: Tmax (in vivo [6]): 0.67 h; solubility (physchem [7]): 145 µg/mL (≈ 391 µM); clearance (in vivo [8]): 8.7 mL/min/kg; inhibition in vivo at […] (Mus musculus [9]): 61%; fraction unbound (in vitro [10]): 0.002; MRT (in vivo [11]): 0.8 h; inhibition [12]: 99%; half-life (in vivo [13]): 0.46 h; logD (physchem [14]): 3.18; bioavailability (in vivo [15]): 81%; bioavailability (in vivo [16]): 46%; Vd (in vivo [17]): 0.48 L/kg; inhibition in vivo at 0.5 mg/kg (Cynomolgus monkey [18]): 100%; inhibition [19]: 64%; Papp B→A (in vitro [20]): 12.7 to 25 ×10⁻⁶ cm/s; inhibition (Mus musculus [21]): Active; half-life (in vivo [22]): 3 h; Papp A→B (in vitro [23]): 17.7 to 42.2 ×10⁻⁶ cm/s; Cmax (in vivo [24]): 7.7 µM; clearance (in vivo [25]): 9.4 mL/min/kg; inhibition in vivo at 0.2 mg/kg (Mus musculus [26]): 40%; Papp (in vitro [27]): 85.9 ×10⁻⁶ cm/s; Cmax (in vivo [3]): 42 µM; bioavailability (in vivo [28]): 74%; inhibition [29]: 90%; MRT (in vivo [30]): 0.57 h; Cmax (in vivo [31]): 9.6 µM; AUC (in vivo [32]): 4.9 µM·h; inhibition in vivo at 0.5 mg/kg (Cynomolgus monkey [33]): 74%; inhibition in vivo at 0.5 mg/kg (Mus musculus [34]): 51%; Vd (in vivo [35]): 0.4 L/kg; solubility (physchem [36]): 2 to 3 µg/mL (≈ 5.4 to 8.1 µM); Papp (in vitro [37]): 97.8 ×10⁻⁶ cm/s; Cmax (in vivo [38]): 2.3 µM; inhibition [39]: 86%; inhibition in vivo at 2.5 mg/kg (Mus musculus [40]): 92%; inhibition (Homo sapiens [41]): 3.1%; half-life (in vivo [42]): 4.3 h; clearance (in vivo [43]): 0.94 mL/min/kg; inhibition [44]: 99%; bioavailability (in vivo [45]): 106%; inhibition [46]: 92%; inhibition (Homo sapiens [47]): 23%; Vd (in vivo [48]): 0.24 L/kg; Tmax (in vivo [49]): 0.58 h; Vd (in vivo [50]): 0.45 L/kg; MRT (in vivo [51]): 1 h; Tmax (in vivo [52]): 1 h; clearance (in vivo [53]): 14 mL/min/kg; fraction unbound (in vitro [54]): 0.004; Cmax (in vivo [55]): 19 µM; AUC (in vivo [56]): 18 µM·h; fraction unbound (in vitro [57]): 0.002; Tmax (in vivo [58]): 1 h; inhibition [59]: 25%; MRT (in vivo [60]): 4.1 h; fraction unbound (in vitro [61]): 0.004; AUC (in vivo [4]): 52 µM·h; AUC (in vivo [62]): 78 µM·h; inhibition [63]: 97%; IC50 (B cell): 0.04 nM; half-life (in vivo [64]): 3.2 h; AUC (in vivo [65]): 14 µM·h; solubility (physchem [66]): 9 µg/mL (≈ 24.3 µM); fraction unbound (in vitro [67]): 0.012
